Counter-ions that a name gives are not always drawn.
Biological target: T1, full length KDR receptor in NIH3T3 cells (Homo sapiens, UniProt P35968)
T1 construct: NIH3T3 cells expressing the full length KDR receptor were grown in DMEM; expressed in transfected cells; host or cells: NIH3T3 cells (G418 selection)
Assay: Cell mechanistic assay - Inhibition of 3T3 KDR phosphorylation
Format: cell-based
Details: NIH3T3 cells expressing KDR, VEGF (30 ng/ml) stimulation, receptor phosphotyrosine ELISA
Experimental: Cell mechanistic assay-Inhibition of 3T3 KDR phosphorylation:
NIH3T3 cells expressing the full length KDR receptor were grown in DMEM (Life Technologies, Inc., Grand Island, N.Y.) supplemented with 10% newborn calf serum, low glucose, 25 mM/L sodium pyruvate, pyridoxine hydrochloride and 0.2 mg/ml of G418 (Life Technologies Inc., Grand Island, N.Y.). The cells were maintained in collagen I-coated T75 flasks (Becton Dickinson Labware, Bedford, Mass.) in a humidified 5% CO2 atmosphere at 37° C.
Fifteen thousand cells were plated into each well of a collagen I-coated 96-well plate in the DMEM growth medium. Six hours later, the cells were washed and the medium was replaced with DMEM without serum. […]
To assess receptor phosphorylation, 100 microliters of each cell lysate was added to the wells of an ELISA plate precoated with 300 ng of antibody C20 (Santa Cruz Biotechnology, Inc., Santa Cruz, Calif.). […] Wells were washed and phosphotyrosine was quantitated by addtion of 100 μl per well of 3,3′,5,5′ tetramethylbenzidine (Kirkegaard and Perry, TMB Microwell 1 Component peroxidase substrate) solution. […]
Optical densities (OD) were determined spectrophotometrically at 450 nm in a 96-well plate reader (SpectraMax 250, Molecular Devices). Background (no VEGF added) OD values were subtracted from all ODs and percent inhibition was calculated according to the equation: [formula] […]

T1 sequence (P35968 20-1356): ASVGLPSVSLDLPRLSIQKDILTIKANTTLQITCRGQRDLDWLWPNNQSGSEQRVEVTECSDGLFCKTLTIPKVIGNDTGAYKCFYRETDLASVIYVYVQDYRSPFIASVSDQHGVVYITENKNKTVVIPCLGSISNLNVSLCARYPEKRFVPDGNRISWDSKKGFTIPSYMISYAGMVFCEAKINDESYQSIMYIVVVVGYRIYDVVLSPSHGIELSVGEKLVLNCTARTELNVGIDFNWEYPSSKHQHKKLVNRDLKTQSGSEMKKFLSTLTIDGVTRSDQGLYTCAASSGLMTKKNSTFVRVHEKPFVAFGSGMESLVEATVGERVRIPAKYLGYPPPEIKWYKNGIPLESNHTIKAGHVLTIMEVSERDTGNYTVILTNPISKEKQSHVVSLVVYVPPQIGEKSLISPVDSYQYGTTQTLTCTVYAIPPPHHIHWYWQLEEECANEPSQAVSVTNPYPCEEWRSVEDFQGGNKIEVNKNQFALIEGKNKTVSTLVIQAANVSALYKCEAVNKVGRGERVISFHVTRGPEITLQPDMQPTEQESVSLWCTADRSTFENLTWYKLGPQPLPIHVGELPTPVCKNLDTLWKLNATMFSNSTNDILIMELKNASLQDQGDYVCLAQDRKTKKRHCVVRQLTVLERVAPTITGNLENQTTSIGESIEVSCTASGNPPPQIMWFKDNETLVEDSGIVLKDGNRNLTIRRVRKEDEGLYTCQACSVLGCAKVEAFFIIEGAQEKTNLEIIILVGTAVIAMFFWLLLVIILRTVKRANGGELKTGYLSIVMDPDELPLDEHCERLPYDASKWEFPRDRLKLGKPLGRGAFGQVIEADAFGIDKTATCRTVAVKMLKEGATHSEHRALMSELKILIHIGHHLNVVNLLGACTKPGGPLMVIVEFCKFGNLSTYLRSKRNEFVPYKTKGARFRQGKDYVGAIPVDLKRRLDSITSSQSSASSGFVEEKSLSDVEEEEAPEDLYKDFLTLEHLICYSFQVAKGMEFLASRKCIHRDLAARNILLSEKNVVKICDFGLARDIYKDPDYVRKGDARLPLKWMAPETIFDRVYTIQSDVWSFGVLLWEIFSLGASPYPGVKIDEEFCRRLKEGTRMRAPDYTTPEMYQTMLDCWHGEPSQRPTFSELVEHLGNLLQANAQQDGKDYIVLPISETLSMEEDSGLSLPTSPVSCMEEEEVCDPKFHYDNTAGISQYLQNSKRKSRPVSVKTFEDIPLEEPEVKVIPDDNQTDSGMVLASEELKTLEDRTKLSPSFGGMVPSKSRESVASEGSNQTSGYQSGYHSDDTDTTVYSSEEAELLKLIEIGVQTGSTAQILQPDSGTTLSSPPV

With `Clc1ccc(Nc2ccc(OCc3ccncc3)nn2)cc1` [Example 21] the IC50 was > 50 nM.

Tested on: not given
Assay: not given
Details: not given

With `CNC(=O)c1cc(Cc2nnc(Nc3ccc(Cl)cc3)c3ccccc23)ccn1` (as salt: hydrochloride) [Example 11, 4-[4-(4-Chlorophenylamino)phthalazin-1-ylmethyl]pyridin-2-yl carboxylic acid methylamide dihydrochloride] the melting point was 255 °C (dec.).

First: NC(=O)c1cc(COc2nnc(Nc3ccc(Cl)cc3)c3ccccc23)ccn1 (as salt: hydrochloride) [Example 15, 4-[4-(4-Chlorophenylamino)phthalazin-1-yloxymethyl]pyridin-2-yl carboxylic acid amide dihydrochloride]
Second: NC(=O)c1cc(Cc2nnc(Nc3ccc(Cl)cc3)c3ccccc23)ccn1 (as salt: methanesulfonate) [Example 14, 4-[4-(4-Chlorophenylamino)phthalazin-1-ylmethyl]pyridin-2-yl carboxylic acid amide dimethanesulfonate]
The melting point of the first is lower: 143 to 145.2 °C for the first, 156 to 161 °C for the second.

Compared with `CNC(=O)c1cc(Cc2nnc(Nc3ccc(Cl)cc3)c3ccccc23)ccn1` (as salt: methanesulfonate) [Example 12, 4-[4-(4-Chlorophenylamino)phthalazin-1-ylmethyl]pyridin-2-yl carboxylic acid methylamide dimethanesulfonate], `Cl.Cl.NC(=O)c1cc(Cc2nnc(Nc3ccc(Cl)cc3)c3ccccc23)ccn1` [Example 13, 4-[4-(4-Chlorophenylamino)phthalazin-1-ylmethyl]pyridin-2-yl carboxylic acid amide dihydrochloride] is lower in melting point: 245 to 249 °C for the first, 180 to 198 °C for the second.

First: NC(=O)c1cc(COc2nnc(Nc3ccc(Cl)cc3)c3ccccc23)ccn1 (as salt: methanesulfonate) [Example 16, 4-[4-(4-Chlorophenylamino)phthalazin-1-yloxymethyl]pyridin-2-yl carboxylic acid amide dimethanesulfonate]
Second: c1ccc2c(Nc3ccc4ncsc4c3)nnc(Cc3ccncc3)c2c1 [Example 23]
The melting point of the first is lower: 75 to 80 °C for the first, 163 to 164 °C for the second.

For `N#CC(c1ccncc1)c1nnc(Nc2ccc3c(c2)CCC3)c2ccccc12` (stereo not shown) [Example 22, 1-(indan-5-ylamino)-4-(4-pyridylcyanomethyl)phthalazine], the melting point was 122 to 123 °C.

Biological target: T2, KDR kinase domain (Homo sapiens, UniProt P35968)
T2 construct: The cytosolic kinase domain of KDR kinase was expressed as a 6 His fusion protein in Sf9 insect cells; 6 His; made in house; host or cells: Sf9 insect cells
Assay: KDR Assay (kinase ELISA, poly(Glu4;Tyr1) phosphorylation)
Format: biochemical
Details: 3.3 μM ATP, 60 minutes room temperature
Experimental: The cytosolic kinase domain of KDR kinase was expressed as a 6 His fusion protein in Sf9 insect cells. The KDR kinase domain fusion protein was purified over a Ni++chelating column. Ninety-six well ELISA plates were coated with 5 μg poly(Glu4;Tyr1) (Sigma Chemical Co., St Louis, Mo.) in 100 μl HEPES buffer (20 mM HEPES, pH 7.5, 150 mM NaCl, 0.02% Thimerosal) at 4° overnight. Before use, the plate was washed with HEPES, NaCl buffer and the plates were blocked with 1% BSA, 0.1% Tween 20 in HEPES, NaCl buffer.
Test compounds were serially diluted in 100% DMSO from 4 mM to 0.12 μM in half-log dilutions. These dilutions were further diluted twenty fold in H2O to obtain compound solutions in 5% DMSO. […]
The assay was incubated with test compound or vehicle alone with gentle agitation at room temperature for 60 minutes. […] PY/anti-PY complexes were detected with an anti-mouse IgG/HRP conjugate (Amershamn International plc, Buckinghamshire, England). Phosphotyrosine was quantitated by incubating with 100 μl 3, 3′, 5, 5′ tetramethylbenzidine solution (Kirkegaard and Perry, TMB Microwell 1 Component peroxidase substrate). […]
Optical densities were determined spectrophotometrically at 450 nm in a 96-well plate reader, SpectraMax 250 (Molecular Devices). Background (no ATP in assay) OD values were subtracted from all ODs and the percent inhibition was calculated according to the equation: [formula] […]

T2 sequence (P35968 834-1162 limits assumed): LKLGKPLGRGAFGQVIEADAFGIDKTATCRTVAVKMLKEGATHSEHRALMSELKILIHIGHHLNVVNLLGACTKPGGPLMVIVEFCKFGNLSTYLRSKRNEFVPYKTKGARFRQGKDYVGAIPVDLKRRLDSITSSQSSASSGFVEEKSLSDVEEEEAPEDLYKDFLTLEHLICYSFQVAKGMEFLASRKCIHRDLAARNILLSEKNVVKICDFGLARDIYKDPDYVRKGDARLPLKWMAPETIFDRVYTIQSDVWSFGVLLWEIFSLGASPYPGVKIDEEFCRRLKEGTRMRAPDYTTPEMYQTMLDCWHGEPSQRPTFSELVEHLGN

With `Clc1ccc(Nc2ccc(OCc3ccncc3)nn2)cc1` [Example 21] the IC50 was > 1000 nM.
